Assay results published in patent US20240408085A1, “COMPOUND FOR DEGRADATION OF BCL-2 FAMILY PROTEINS AND MEDICAL APPLICATION THEREOF” (XIZANG HAISCO PHARMACEUTICAL CO., LTD., priority 2021, published 2024).

Each molecule was assayed against T1, BCL-xL proteins (Homo sapiens, UniProt Q07817) (assay: BCL-xL degradation activity in MOLT-4 cells (western blot, 16 h)). Conditions: not given.
T1 construct: degradation effect on the BCL-xL proteins in MOLT-4 cells; host or cells: MOLT-4
Assay type: cell-based
Procedure: MOLT-4 cells are acute lymphoblastic leukemia cell lines in humans. The cells were purchased from ATCC. Culture conditions: RPMI-1640+10% FBS+1% penicillin-streptomycin solution. The cells were cultured in a 37° C., 5% CO2 incubator. The cells were plated in a 12-well plate, with 2×10^5 cells/well. After plating, compounds at different concentrations were added and cultured in a 37° C., 5% CO2 incubator for 16 h. After the completion of culture, the cells were harvested and RIPA lysis buffer (beyotime, Cat. P0013B) was added. The cells were lysed on ice for 15 minutes and centrifuged at 12000 rpm at 4° C. for 10 minutes. The supernatant protein samples were collected and the protein was quantified by using the BCA kit (Beyotime, Cat. P0009). Then the protein was diluted to 0.8 mg/mL. The expressions of BCL-xL (CST, Cat. 2764S), BCL-2 (CST, Cat. 15071S) and the internal reference β-actin (CST, Cat. 3700S) were detected using a fully automated western blot quantitative analyzer (Proteinsimple). The expression level of BCL-xL or BCL-2 relative to the internal reference was calculated by using Compass software, and the DC50 value was calculated by using GraphPad Prism 8.0 software according to formula (1), wherein the Proteinadministration denoted the relative expression level of BCL-xL or BCL-2 in administration groups at different doses, and the Proteinvehicle denoted the relative expression level of BCL-xL or BCL-2 in the vehicle control group.
Protein %=Proteinadministration/Proteinvehicle×100% formula (1)

T1 sequence (Q07817 whole entry): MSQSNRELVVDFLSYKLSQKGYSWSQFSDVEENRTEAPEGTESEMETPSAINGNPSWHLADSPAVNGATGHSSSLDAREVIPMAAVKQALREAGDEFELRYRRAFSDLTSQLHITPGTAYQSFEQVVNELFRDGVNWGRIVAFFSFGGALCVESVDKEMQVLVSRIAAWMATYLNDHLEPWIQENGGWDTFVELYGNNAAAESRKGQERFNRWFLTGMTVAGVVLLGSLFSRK

DC50 [nM]	Compound
3.6	Cc1ncsc1-c1ccc([C@H](C)NC(=O)[C@@H]2C[C@@H](O)CN2C(=O)[C@@H](NC(=O)CCCC(=O)N2C[C@H]3CN(CC[C@H](CSc4ccccc4)Nc4ccc(S(=O)(=O)NC(=O)c5ccc(N6CCN(CC7=C(c8ccc(Cl)cc8)CCC(C)(C)C7)CC6)cc5)cc4S(=O)(=O)C(F)(F)F)C[C@H]3C2)C(C)(C)C)cc1 [Compound 15, cis-(2S,4R)-1-((S)-2-(5-(5-((R)-3-((4-(N-(4-(4-((4′-chloro-4,4-dimethyl-3,4,5,6-tetrahydro-[1,1′-biphenyl]-2-yl)methyl)piperazin-1-yl)benzoyl)sulfamoyl)-2-((trifluoromethyl)sulfonyl)phenyl)amino)-4-(phenylthio)butyl)hexahydropyrrolo[3,4-c]pyrrol-2(1H)-yl)-5-oxopentanamido)-3,3-dimethylbutanoyl)-4-hydroxy-N—((S)-1-(4-(4-methylthiazol-5-yl)phenyl)ethyl)pyrrolidine-2-carboxamide]

The molecules below were run on MOLT-4 cells (assay: Cell proliferation activity in MOLT-4 cells (72 h, cell viability luminescence)). Conditions: Homo sapiens, read-out: IC50 for the inhibition of MOLT-4 cell proliferation.
Assay type: cell-based, human
Method in brief: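 Human acute lymphoblastic leukemia cells were seeded at 5×10^3 cells/well in RPMI-1640 with 10% FBS. They were treated with serially varied compound concentrations for 72 h at 37° C., 5% CO2. A luminescent viability reagent was used for read-out. IC50 was derived relative to vehicle control; maximum inhibition was the inhibition rate at the highest concentration.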

IC50 [nM]	Compound
< 500	Cc1ncsc1-c1ccc([C@H](C)NC(=O)[C@@H]2C[C@@H](O)CN2C(=O)[C@@H](NC(=O)CCCC(=O)N2C[C@H]3CN(CC[C@H](CSc4ccccc4)Nc4ccc(S(=O)(=O)NC(=O)c5ccc(N6CCN(CC7=C(c8ccc(Cl)cc8)CCC(C)(C)C7)CC6)cc5)cc4S(=O)(=O)C(F)(F)F)C[C@H]3C2)C(C)(C)C)cc1 [Compound 15, cis-(2S,4R)-1-((S)-2-(5-(5-((R)-3-((4-(N-(4-(4-((4′-chloro-4,4-dimethyl-3,4,5,6-tetrahydro-[1,1′-biphenyl]-2-yl)methyl)piperazin-1-yl)benzoyl)sulfamoyl)-2-((trifluoromethyl)sulfonyl)phenyl)amino)-4-(phenylthio)butyl)hexahydropyrrolo[3,4-c]pyrrol-2(1H)-yl)-5-oxopentanamido)-3,3-dimethylbutanoyl)-4-hydroxy-N—((S)-1-(4-(4-methylthiazol-5-yl)phenyl)ethyl)pyrrolidine-2-carboxamide]
< 500	Cc1ncsc1-c1ccc([C@H](C)NC(=O)[C@@H]2C[C@@H](O)CN2C(=O)[C@@H](NC(=O)CCCCCC(=O)N2C[C@@H]3C[C@H]2CN3CC[C@H](CSc2ccccc2)Nc2ccc(S(=O)(=O)NC(=O)c3ccc(N4CCN(CC5=C(c6ccc(Cl)cc6)CCCCC5)CC4)cc3)cc2S(=O)(=O)C(F)(F)F)C(C)(C)C)cc1 [Compound 33, (2S,4R)-1-((S)-2-(7-((1S,4S)-5-((R)-3-((4-(N-(4-(4-((2-(4-chlorophenyl)cyclohept-1-en-1-yl)methyl)piperazin-1-yl)benzoyl)sulfamoyl)-2-((trifluoromethyl)sulfonyl)phenyl)amino)-4-(phenylthio)butyl)-2,5-diazabicyclo[2.2.1]heptan-2-yl)-7-oxoheptanamido)-3,3-dimethylbutanoyl)-4-hydroxy-N—((S)-1-(4-(4-methylthiazol-5-yl)phenyl)ethyl)pyrrolidine-2-carboxamide]
< 500	Cc1ncsc1-c1ccc([C@H](C)NC(=O)[C@@H]2C[C@@H](O)CN2C(=O)[C@@H](NC(=O)CCCCCCC(=O)N2C[C@H]3CN(CC[C@H](CSc4ccccc4)Nc4ccc(S(=O)(=O)NC(=O)c5ccc(N6CCN(CC7=C(c8ccc(Cl)cc8)CCCCC7)CC6)cc5)cc4S(=O)(=O)C(F)(F)F)C[C@H]3C2)C(C)(C)C)cc1 [Compound 42, cis-(2S,4R)-1-((S)-2-(8-(5-((R)-3-((4-(N-(4-(4-((2-(4-chlorophenyl)cyclohept-1-en-1-yl)methyl)piperazin-1-yl)benzoyl)sulfamoyl)-2-((trifluoromethyl)sulfonyl)phenyl)amino)-4-(phenylthio)butyl)hexahydropyrrolo[3,4-c]pyrrol-2(1H)-yl)-8-oxooctanamido)-3,3-dimethylbutanoyl)-4-hydroxy-N—((S)-1-(4-(4-methylthiazol-5-yl)phenyl)ethyl)pyrrolidine-2-carboxamide]
< 500	Cc1ncsc1-c1ccc([C@H](C)NC(=O)[C@@H]2C[C@@H](O)CN2C(=O)[C@@H](NC(=O)CCCCCCC(=O)N2C[C@H]3CN(CC[C@H](CSc4ccccc4)Nc4ccc(S(=O)(=O)NC(=O)c5ccc(N6CCN(CC7=C(c8ccc(Cl)cc8)CCC8(CC8)C7)CC6)cc5)cc4S(=O)(=O)C(F)(F)F)C[C@H]3C2)C(C)(C)C)cc1 [Compound 22, cis-(2S,4R)-1-((S)-2-(8-(5-((R)-3-((4-(N-(4-(4-((6-(4-chlorophenyl)spiro[2.5]oct-5-en-5-yl)methyl)piperazin-1-yl)benzoyl)sulfamoyl)-2-((trifluoromethyl)sulfonyl)phenyl)amino)-4-(phenylthio)butyl)hexahydropyrrolo[3,4-c]pyrrol-2(1H)-yl)-8-oxooctanamido)-3,3-dimethylbutanoyl)-4-hydroxy-N—((S)-1-(4-(4-methylthiazol-5-yl)phenyl)ethyl)pyrrolidine-2-carboxamide]
< 500	Cc1ncsc1-c1ccc([C@H](C)NC(=O)[C@@H]2C[C@@H](O)CN2C(=O)[C@@H](NC(=O)CCCCCCC(=O)N2C[C@@H]3C[C@H]2CN3CC[C@H](CSc2ccccc2)Nc2ccc(S(=O)(=O)NC(=O)c3ccc(N4CCN(CC5=C(c6ccc(Cl)cc6F)CCC6(CC6)C5)CC4)cc3)cc2S(=O)(=O)C(F)(F)F)C(C)(C)C)cc1 [Compound 30, (2S,4R)-1-((S)-2-(8-((1S,4S)-5-((R)-3-((4-(N-(4-(4-((6-(4-chloro-2-fluorophenyl)spiro[2.5]oct-5-en-5-yl)methyl)piperazin-1-yl)benzoyl)sulfamoyl)-2-((trifluoromethyl)sulfonyl)phenyl)amino)-4-(phenylthio)butyl)-2,5-diazabicyclo[2.2.1]heptan-2-yl)-8-oxooctanamido)-3,3-dimethylbutanoyl)-4-hydroxy-N—((S)-1-(4-(4-methylthiazol-5-yl)phenyl)ethyl)pyrrolidine-2-carboxamide]
< 500	Cc1ncsc1-c1ccc([C@H](C)NC(=O)[C@@H]2C[C@@H](O)CN2C(=O)[C@@H](NC(=O)CCCCCC(=O)N2C[C@@H]3C[C@H]2CN3CC[C@H](CSc2ccccc2)Nc2ccc(S(=O)(=O)NC(=O)c3ccc(N4CCN(CC5=C(c6ccc(Cl)cc6F)CCC(C)(C)C5)CC4)cc3)cc2S(=O)(=O)C(F)(F)F)C(C)(C)C)cc1 [Compound 20, (2S,4R)-1-((S)-2-(7-((1S,4S)-5-((R)-3-((4-(N-(4-(4-((4′-chloro-2′-fluoro-4,4-dimethyl-3,4,5,6-tetrahydro-[1,1′-biphenyl]-2-yl)methyl)piperazin-1-yl)benzoyl)sulfamoyl)-2-((trifluoromethyl)sulfonyl)phenyl)amino)-4-(phenylthio)butyl)-2,5-diazabicyclo[2.2.1]heptan-2-yl)-7-oxoheptanamido)-3,3-dimethylbutanoyl)-4-hydroxy-N—((S)-1-(4-(4-methylthiazol-5-yl)phenyl)ethyl)pyrrolidine-2-carboxamide]
< 500	Cc1ncsc1-c1ccc([C@H](C)NC(=O)[C@@H]2C[C@@H](O)CN2C(=O)[C@@H](NC(=O)CCCCCCCC(=O)N2C[C@H]3CN(CC[C@H](CSc4ccccc4)Nc4ccc(S(=O)(=O)NC(=O)c5ccc(N6CCN(CC7=C(c8ccc(Cl)cc8)CCC(C)(C)C7)CC6)cc5)cc4S(=O)(=O)C(F)(F)F)C[C@H]3C2)C(C)(C)C)cc1 [Compound 16, cis-(2S,4R)-1-((S)-2-(9-(5-((R)-3-((4-(N-(4-(4-((4′-chloro-4,4-dimethyl-3,4,5,6-tetrahydro-[1,1′-biphenyl]-2-yl)methyl)piperazin-1-yl)benzoyl)sulfamoyl)-2-((trifluoromethyl)sulfonyl)phenyl)amino)-4-(phenylthio)butyl)hexahydropyrrolo[3,4-c]pyrrol-2(1H)-yl)-9-oxononanamido)-3,3-dimethylbutanoyl)-4-hydroxy-N—((S)-1-(4-(4-methylthiazol-5-yl)phenyl)ethyl)pyrrolidine-2-carboxamide]
< 500	Cc1ncsc1-c1ccc([C@H](C)NC(=O)[C@@H]2C[C@@H](O)CN2C(=O)[C@@H](NC(=O)CCCCCCC(=O)N2C[C@H]3CN(CC[C@H](CSc4ccccc4)Nc4ccc(S(=O)(=O)NC(=O)c5ccc(N6CCN(CC7=C(c8ccc(Cl)cc8F)CCCCC7)CC6)cc5)cc4S(=O)(=O)C(F)(F)F)C[C@H]3C2)C(C)(C)C)cc1 [Compound 40, cis-(2S,4R)-1-((S)-2-(8-(5-((R)-3-((4-(N-(4-(4-((2-(4-chloro-2-fluorophenyl)cyclohept-1-en-1-yl)methyl)piperazin-1-yl)benzoyl)sulfamoyl)-2-((trifluoromethyl)sulfonyl)phenyl)amino)-4-(phenylthio)butyl)hexahydropyrrolo[3,4-c]pyrrol-2(1H)-yl)-8-oxooctanamido)-3,3-dimethylbutanoyl)-4-hydroxy-N—((S)-1-(4-(4-methylthiazol-5-yl)phenyl)ethyl)pyrrolidine-2-carboxamide]

Compound	IC50 [nM]
Cc1ncsc1-c1ccc([C@H](C)NC(=O)[C@@H]2C[C@@H](O)CN2C(=O)[C@@H](NC(=O)CCCCCC(=O)N2CCN(CC[C@H](CSc3ccccc3)Nc3ccc(S(=O)(=O)NC(=O)c4ccc(N5CCN(CC6=C(c7ccc(Cl)cc7)CCCCC6)CC5)cc4)cc3S(=O)(=O)C(F)(F)F)CC2)C(C)(C)C)cc1 [Trifluoroacetate of compound 6, (2S,4R)-1-((S)-2-(7-(4-((R)-3-((4-(N-(4-(4-((2-(4-chlorophenyl)cyclohept-1-en-1-yl)methyl)piperazin-1-yl)benzoyl)sulfamoyl)-2-((trifluoromethyl)sulfonyl)phenyl)amino)-4-(phenylthio)butyl)piperazin-1-yl)-7-oxoheptanamido)-3,3-dimethylbutanoyl)-4-hydroxy-N—((S)-1-(4-(4-methylthiazol-5-yl)phenyl)ethyl)pyrrolidine-2-carboxamide]	< 500
